The text below walks through data of patent US20050043361A1, “MitoNEET polypeptide from mitochondrial membranes, modulators thereof, and methods of using the same” (priority 2002, published 2005).

Entries after “also recorded” stand apart in the source; their conditions may differ.

For assay [1], the target named is T1, mitoNEET (Rattus norvegicus, UniProt B0K020).
T1 construct: newly prepared crude rat liver mitochondria; from tissue; host or cells: rat liver mitochondria (Sprague-Dawley rats)
T1 sequence (B0K020 1-108): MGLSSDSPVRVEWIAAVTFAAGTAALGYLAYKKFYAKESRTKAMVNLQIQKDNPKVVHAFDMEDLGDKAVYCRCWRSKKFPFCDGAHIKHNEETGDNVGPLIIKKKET
Nature of the assay: Photoaffinity crosslinking of 125I-labelled thiazolidinedione probe to rat liver mitochondria, with or without competing thiazolidinedione. The format is binding. The method, then:
FIG. 1. A representative 10-20% SDS-PAGE gel (Coomassie stain, left panel) and autoradiogram (right panel). Crosslinking with ^125I-PNU-1010174 was conducted in rat liver mitochondria in the absence (−) or presence of 25 μM (+) of ([6-(2-{4-[(2,4-dioxo-1,3-thiazolidin-5-yl)methyl]phenoxy}ethyl)pyridin-3-yl]acetic acid) (TZD) as described in Example 1. Lanes 1 and 2 are from the rinsed mitochondrial pellet, lanes 3 and 4 represent the same incubations solubilized with 1% Triton X 114, and lanes 5 and 6 are the ammonium sulfate (AS) precipitation of the Triton X 114 soluble material.
FIG. 2. The ammonium sulfate pellets of Triton X 114—soluble mitoNEET from 14 separate incubations conducted with or without competitor were resuspended in a total volume of 200 μl and subjected to HPLC as described in Example 4. Representative data for the minus competitor condition is shown. […] The ^125I, profile from the in-line gamma detector is shown in the lower right panel. The left hand panels show the silver-stained gel (upper left) and corresponding autoradiogram (lower left) of the relevant fractions. Data are shown for a representative rat liver mitochondrial preparation. The ^125I-crosslinked mitoNEET seen in fraction 31 was not present in the preparations crosslinked in the combined presence of ([6-(2-{4-[(2,4-dioxo-1,3-thiazolidin-5-yl)methyl]phenoxy}ethyl)pyridin-3-yl]acetic acid) (not shown). […]

For assay [2], the target named is T2, mitoNEET (Bos taurus, UniProt Q3ZBU2).
T2 construct: from tissue; host or cells: steer brain, sucrose-density mitochondrial fractions B3/B4
T2 sequence (Q3ZBU2 2-106 limits assumed): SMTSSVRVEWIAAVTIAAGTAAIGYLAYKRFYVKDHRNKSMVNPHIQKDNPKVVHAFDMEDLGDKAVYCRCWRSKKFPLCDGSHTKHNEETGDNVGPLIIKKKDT
Put plainly: Photoaffinity crosslinking of 125I-labelled thiazolidinedione probe to bovine brain mitochondrial fractions (B3/B4). As to conditions: stored, frozen bovine brain mitochondrial fractions (B3/B4); UV crosslinking. The format is binding. The procedure:
Bovine brain mitochondria were harvested from bovine brains. This procedure involved dissection of steer brains freshly obtained from a local packinghouse. The rinsed brains were homogenized in fractionation buffer (250 mM sucrose, 50 mM Tris, pH=8.0, containing 1 μg/ml pepstatin A, 5 μg/ml leupeptin, 10 μg/ml bacitracin, and 0.1 mM PMSF). Following removal of nuclei at 5000 rpm in a Beckman Ti50, the mitochondrial pellet was harvested at 20,000×g (12,500 rpm in a Beckman Ti50 rotor) and further enriched by sucrose density centrifugation. Membrane fractions were collected from top of the 1.18 and 1.20 density bands, re-suspended in 50 mM Tris, and collected by centrifugation. The factions (“B3/B4”) were stored at −80° C. until use.
Crosslinking reactions were carried out in a final volume of 200 μl, containing 100 μl membranes, 50 μl 4% DMSO with or without competing thiazolidinedione (usually 100 μM ([6-(2-{4-[(2,4-dioxo-1,3-thiazolidin-5-yl)methyl]phenoxy}ethyl)pyridin-3-yl]acetic acid), 25 μM final concentration), and 50 μl carrier-free ^125I-4-azido-N-[2-({[6-(2-{4-[(2,4-dioxo-1,3-thiazolidin-5-yl)methyl]phenoxy}ethyl)pyridin-3-yl]acetyl}amino)ethyl]-2-hydroxybenzamide (0.1-0.2 μCi/tube). […]

Assay [3] relates to fatty acid oxidation. Nature of the assay: Oxidation of palmitoyl CoA by solubilized mitochondria with and without synthetic mitoNEET (HPLC). Format: biochemical. As to conditions: excess synthetic mitoNEET; solubilized mitochondrial preparations; CoASH, NAD, FAD, 1 mM palmitoyl CoA. The method, then: FIG. 10. Oxidation of palmitoyl CoA was measured by solubilized mitochondria with and without the addition of synthetic mitoNEET. Reactions were conducted in the presence of CoASH, NAD, FAD, and 1 mM palmitoyl CoA. Remaining palmitoyl CoA at various time points after incubation is shown in the absence (closed circles) and presence of excess synthetic mitoNEET peptide 11A (closed squares). There was no loss of substrate in the absence of mitochondrial membranes (open triangles). Substrate and generated CoA products were measured by HPLC.
Full-length mitoNEET synthesized as in Example 6 was extended to contain a N-terminal biotin. […] A number of these proteins have been identified and are know to be involved in fatty acid oxidation. […] Modulation of mitoNEET function would be expected to increase fatty acid oxidation. Such an approach to find useful modulators as described herein may be taken with synthetic peptide or membranes containing endogenous or overexpressed mitoNEET.

On to `O=C(O)Cc1ccc(CCOc2ccc(CC3SC(=O)NC3=O)cc2)nc1` (stereo not shown) [[6-(2-{4-[(2,4-dioxo-1,3-thiazolidin-5-yl)methyl]phenoxy}ethyl)pyridin-3-yl]acetic acid], for which, in assay [1] (competitor 25 μM final concentration, HPLC with in-line gamma detector, fraction 31, identical results with bovine brain fractions), the “125I-crosslinked mitoNEET peak (HPLC) in presence of competitor” value is “lacked this peak; also recorded: not present”.
For `[N-]=[N+]=Nc1cc(O)c(C(=O)NCCNC(=O)Cc2ccc(CCOc3ccc(CC4SC(=O)NC4=O)cc3)nc2)cc1[125I]` (stereo not shown), the “labeling of mitoNEET by crosslinking” value in assay [1] (newly prepared crude rat liver mitochondria, UV crosslinking, carrier-free probe 0.1-0.2 μCi/tube) is “labeling of the mitoNEET”; in assay [2], “labeling of the mitoNEET”.

B1: synthetic mitoNEET: Full-length mitoNEET polypeptide made by peptide synthesis (peptide, UniProt Q9NZ45 1-108, looked up)
chain: MSLTSSSSVRVEWIAAVTIAAGTAAIGYLAYKRFYVKDHRNKAMINLHIQKDNPKIVHAFDMEDLGDKAVYCRCWRSKKFPFCDGAHTKHNEETGDNVGPLIIKKKET
modifications: full-length chemically synthesized
notes: Full-length mitoNEET polypeptide made by peptide synthesis
As to B1, in assay [3], the “effect on fatty acid oxidation (remaining palmitoyl CoA)” value is reported as “inhibits fatty acid oxidation”.
